Test results reported in paper PMC5656653, “Evaluation of Ga-DOTA-(D-Asp)n as bone imaging agents: D-aspartic acid peptides as carriers to bone” (Scientific Reports, 2017).
Read-outs that look alike come from different tables or passages of the source. Blank lines part the entries; values can stand above or below the compound they belong to. Where a SMILES comes first, the peptide text is derived from it. [ ]: non-standard residue; d: D form. The star is where a group is joined. DOTA = O=C(O)CN1CCN(CC(=O)O)CCN(CC(=O)*)CCN(CC(=O)O)CC1

Assay: Biodistribution experiments in normal mice after i.v. injection
Format: in vivo
Details: for tissue uptake dose at 10 min / tissue uptake dose at 1 h / tissue uptake dose at 3 h: male, ddY, total radioactivity
Experimental: Experiments with animals were conducted in strict accordance with the Guidelines for the Care and Use of Laboratory Animals of Kanazawa University. The animal experimental protocols used were approved by the Committee on Animal Experimentation of Kanazawa University (Permit Number: AP-132633). Biodistribution experiments were performed after intravenous administration of each diluted tracer solution (37–740 kBq/100 μL) to 6-week-old male ddY mice (27–32 g, Japan SLC, Inc., Hamamatsu, Japan). Four or five mice at each time point after the administration of each compound were sacrificed by decapitation at 10, 60, and 180 min post-injection. Tissues of interest were taken and weighed. Complete left femurs were isolated as representative bone samples, radioactivity was determined using gamma counters (AccuFLEX γ ARC-8001 in the case of ^18F, Hitachi, Ltd.), and background counts and physical decay were corrected during counting.

[1] = mouse, in vivo, iv, Biodistribution of radioactivity, Blood
[2] = mouse, in vivo, iv, Biodistribution of radioactivity, Bone (Femur)
[3] = mouse, in vivo, iv, Biodistribution of radioactivity, Brain
[4] = mouse, in vivo, iv, Biodistribution of radioactivity, Heart
[5] = mouse, in vivo, iv, Biodistribution of radioactivity, Kidney
[6] = mouse, in vivo, iv, Biodistribution of radioactivity, Large-intestine
[7] = mouse, in vivo, iv, Biodistribution of radioactivity, Liver
[8] = mouse, in vivo, iv, Biodistribution of radioactivity, Lung
[9] = mouse, in vivo, iv, Biodistribution of radioactivity, Muscle
[10] = mouse, in vivo, iv, Biodistribution of radioactivity, Pancreas
[11] = mouse, in vivo, iv, Biodistribution of radioactivity, Small-intestine
[12] = mouse, in vivo, iv, Biodistribution of radioactivity, Spleen
[13] = mouse, in vivo, iv, Biodistribution of radioactivity, Stomach

SMILES: O=C(O)C[C@@H](NC(=O)[C@@H](CC(=O)O)NC(=O)[C@@H](CC(=O)O)NC(=O)[C@@H](CC(=O)O)NC(=O)[C@@H](CC(=O)O)NC(=O)[C@@H](CC(=O)O)NC(=O)[C@@H](CC(=O)O)NC(=O)[C@@H](CC(=O)O)NC(=O)[C@@H](CC(=O)O)NC(=O)[C@@H](CC(=O)O)NC(=O)[C@@H](CC(=O)O)NC(=O)CN1CCN(CC(=O)O)CCN(CC(=O)O)CCN(CC(=O)O)CC1)C(=O)O [^67Ga-DOTA-(D-Asp)11, metal not drawn] ({DOTA}-[dD][dD][dD][dD][dD][dD][dD][dD][dD][dD][dD]-OH)
- tissue uptake dose at 10 min (mouse, in vivo, iv, mice, i.v., 10 min after injection, mean (SD), footnote b, read-out: Biodistribution of radioactivity, Stomach): 0.18 %ID
- tissue uptake dose at 10 min (mouse, in vivo, iv, mice, i.v., 10 min after injection, mean (SD), read-out: Biodistribution of radioactivity, Blood): 1.71 %ID
- tissue uptake dose at 10 min (mouse, in vivo, iv, mice, i.v., 10 min after injection, mean (SD), read-out: Biodistribution of radioactivity, Bone (Femur)): 11.9 %ID
- tissue uptake dose at 10 min (mouse, in vivo, iv, mice, i.v., 10 min after injection, mean (SD), read-out: Biodistribution of radioactivity, Brain): 0.05 %ID
- tissue uptake dose at 10 min (mouse, in vivo, iv, mice, i.v., 10 min after injection, mean (SD), read-out: Biodistribution of radioactivity, Heart): 0.65 %ID
- tissue uptake dose at 10 min (mouse, in vivo, iv, mice, i.v., 10 min after injection, mean (SD), read-out: Biodistribution of radioactivity, Kidney): 12.8 %ID
- tissue uptake dose at 10 min (mouse, in vivo, iv, mice, i.v., 10 min after injection, mean (SD), read-out: Biodistribution of radioactivity, Large-intestine): 0.28 %ID
- tissue uptake dose at 10 min (mouse, in vivo, iv, mice, i.v., 10 min after injection, mean (SD), read-out: Biodistribution of radioactivity, Liver): 0.51 %ID
- tissue uptake dose at 10 min (mouse, in vivo, iv, mice, i.v., 10 min after injection, mean (SD), read-out: Biodistribution of radioactivity, Lung): 1.24 %ID
- tissue uptake dose at 10 min (mouse, in vivo, iv, mice, i.v., 10 min after injection, mean (SD), read-out: Biodistribution of radioactivity, Muscle): 0.58 %ID
- tissue uptake dose at 10 min (mouse, in vivo, iv, mice, i.v., 10 min after injection, mean (SD), read-out: Biodistribution of radioactivity, Pancreas): 0.53 %ID
- tissue uptake dose at 10 min (mouse, in vivo, iv, mice, i.v., 10 min after injection, mean (SD), read-out: Biodistribution of radioactivity, Small-intestine): 0.38 %ID
- tissue uptake dose at 10 min (mouse, in vivo, iv, mice, i.v., 10 min after injection, mean (SD), read-out: Biodistribution of radioactivity, Spleen): 0.44 %ID
- tissue uptake dose at 1 h (mouse, in vivo, iv, mice, i.v., 60 min after injection, mean (SD), footnote b, read-out: Biodistribution of radioactivity, Stomach): 0.04 %ID
- tissue uptake dose at 1 h (mouse, in vivo, iv, mice, i.v., 60 min after injection, mean (SD), read-out: Biodistribution of radioactivity, Blood): 0.14 %ID
- tissue uptake dose at 1 h (mouse, in vivo, iv, mice, i.v., 60 min after injection, mean (SD), read-out: Biodistribution of radioactivity, Bone (Femur)): 15.3 %ID
- tissue uptake dose at 1 h (mouse, in vivo, iv, mice, i.v., 60 min after injection, mean (SD), read-out: Biodistribution of radioactivity, Brain): 0.01 %ID
- tissue uptake dose at 1 h (mouse, in vivo, iv, mice, i.v., 60 min after injection, mean (SD), read-out: Biodistribution of radioactivity, Heart): 0.04 %ID
- tissue uptake dose at 1 h (mouse, in vivo, iv, mice, i.v., 60 min after injection, mean (SD), read-out: Biodistribution of radioactivity, Kidney): 2.92 %ID
- tissue uptake dose at 1 h (mouse, in vivo, iv, mice, i.v., 60 min after injection, mean (SD), read-out: Biodistribution of radioactivity, Large-intestine): 0.03 %ID
- tissue uptake dose at 1 h (mouse, in vivo, iv, mice, i.v., 60 min after injection, mean (SD), read-out: Biodistribution of radioactivity, Liver): 0.2 %ID
- tissue uptake dose at 1 h (mouse, in vivo, iv, mice, i.v., 60 min after injection, mean (SD), read-out: Biodistribution of radioactivity, Lung): 0.08 %ID
- tissue uptake dose at 1 h (mouse, in vivo, iv, mice, i.v., 60 min after injection, mean (SD), read-out: Biodistribution of radioactivity, Muscle): 0.18 %ID
- tissue uptake dose at 1 h (mouse, in vivo, iv, mice, i.v., 60 min after injection, mean (SD), read-out: Biodistribution of radioactivity, Pancreas): 0.09 %ID
- tissue uptake dose at 1 h (mouse, in vivo, iv, mice, i.v., 60 min after injection, mean (SD), read-out: Biodistribution of radioactivity, Small-intestine): 0.07 %ID
- tissue uptake dose at 1 h (mouse, in vivo, iv, mice, i.v., 60 min after injection, mean (SD), read-out: Biodistribution of radioactivity, Spleen): 0.13 %ID
- tissue uptake dose at 3 h (mouse, in vivo, iv, mice, i.v., 180 min after injection, mean (SD), footnote b, read-out: Biodistribution of radioactivity, Stomach): 0.02 %ID
- tissue uptake dose at 3 h (mouse, in vivo, iv, mice, i.v., 180 min after injection, mean (SD), read-out: Biodistribution of radioactivity, Blood): 0.08 %ID
- tissue uptake dose at 3 h (mouse, in vivo, iv, mice, i.v., 180 min after injection, mean (SD), read-out: Biodistribution of radioactivity, Bone (Femur)): 15.4 %ID
- tissue uptake dose at 3 h (mouse, in vivo, iv, mice, i.v., 180 min after injection, mean (SD), read-out: Biodistribution of radioactivity, Brain): 0.02 %ID
- tissue uptake dose at 3 h (mouse, in vivo, iv, mice, i.v., 180 min after injection, mean (SD), read-out: Biodistribution of radioactivity, Heart): 0.03 %ID
- tissue uptake dose at 3 h (mouse, in vivo, iv, mice, i.v., 180 min after injection, mean (SD), read-out: Biodistribution of radioactivity, Kidney): 1 %ID
- tissue uptake dose at 3 h (mouse, in vivo, iv, mice, i.v., 180 min after injection, mean (SD), read-out: Biodistribution of radioactivity, Large-intestine): 0.11 %ID
- tissue uptake dose at 3 h (mouse, in vivo, iv, mice, i.v., 180 min after injection, mean (SD), read-out: Biodistribution of radioactivity, Liver): 0.13 %ID
- tissue uptake dose at 3 h (mouse, in vivo, iv, mice, i.v., 180 min after injection, mean (SD), read-out: Biodistribution of radioactivity, Lung): 0.05 %ID
- tissue uptake dose at 3 h (mouse, in vivo, iv, mice, i.v., 180 min after injection, mean (SD), read-out: Biodistribution of radioactivity, Muscle): 0.06 %ID
- tissue uptake dose at 3 h (mouse, in vivo, iv, mice, i.v., 180 min after injection, mean (SD), read-out: Biodistribution of radioactivity, Pancreas): 0.04 %ID
- tissue uptake dose at 3 h (mouse, in vivo, iv, mice, i.v., 180 min after injection, mean (SD), read-out: Biodistribution of radioactivity, Small-intestine): 0.05 %ID
- tissue uptake dose at 3 h (mouse, in vivo, iv, mice, i.v., 180 min after injection, mean (SD), read-out: Biodistribution of radioactivity, Spleen): 0.1 %ID
- F/B ratio (Femur:blood ratio) (mice, i.v., 10 min after injection, mean (SD)): 7.01 (0.56)
- F/B ratio (Femur:blood ratio) (mice, i.v., 60 min after injection, mean (SD)): 147.10 (71.25)
- F/B ratio (Femur:blood ratio) (mice, i.v., 180 min after injection, mean (SD)): 248.95 (170.64)
- Accumulation of radioactivity in bone (in words) (normal mice, i.v.): high accumulation and retention of radioactivity in bone

- tissue uptake dose at 10 min [1]: 2.09 %ID
- tissue uptake dose at 1 h [1]: 0.1 %ID
- tissue uptake dose at 3 h [1]: 0.01 %ID
- tissue uptake dose at 10 min [2]: 11 %ID
- tissue uptake dose at 1 h [2]: 11.8 %ID
- tissue uptake dose at 3 h [2]: 12.2 %ID
- tissue uptake dose at 10 min [3]: 0.05 %ID
- tissue uptake dose at 1 h [3]: 0.01 %ID
- tissue uptake dose at 3 h [3]: 0.01 %ID
- tissue uptake dose at 10 min [4]: 0.79 %ID
- tissue uptake dose at 1 h [4]: 0.08 %ID
- tissue uptake dose at 3 h [4]: 0.05 %ID
- tissue uptake dose at 10 min [5]: 13.4 %ID
- tissue uptake dose at 1 h [5]: 10.6 %ID
- tissue uptake dose at 3 h [5]: 6.59 %ID
- tissue uptake dose at 10 min [6]: 0.42 %ID
- tissue uptake dose at 1 h [6]: 0.18 %ID
- tissue uptake dose at 3 h [6]: 0.25 %ID
- tissue uptake dose at 10 min [7]: 0.46 %ID
- tissue uptake dose at 1 h [7]: 0.12 %ID
- tissue uptake dose at 3 h [7]: 0.08 %ID
- tissue uptake dose at 10 min [8]: 1.65 %ID
- tissue uptake dose at 1 h [8]: 0.13 %ID
- tissue uptake dose at 3 h [8]: 0.04 %ID
- tissue uptake dose at 10 min [9]: 0.78 %ID
- tissue uptake dose at 1 h [9]: 0.19 %ID
- tissue uptake dose at 3 h [9]: 0.02 %ID
- tissue uptake dose at 10 min [10]: 0.68 %ID
- tissue uptake dose at 1 h [10]: 0.13 %ID
- tissue uptake dose at 3 h [10]: 0.06 %ID
- tissue uptake dose at 10 min [11]: 0.37 %ID
- tissue uptake dose at 1 h [11]: 0.22 %ID
- tissue uptake dose at 3 h [11]: 0.15 %ID
- tissue uptake dose at 10 min [12]: 0.37 %ID
- tissue uptake dose at 1 h [12]: 0.06 %ID
- tissue uptake dose at 3 h [12]: 0.03 %ID
- tissue uptake dose at 10 min [13]: 0.29 %ID
- tissue uptake dose at 1 h [13]: 0.19 %ID
- tissue uptake dose at 3 h [13]: 0.29 %ID
- Clearance from the blood (in words) (mouse, in vivo, iv): rapid clearance from the blood
- Radioactivity in the kidneys (in words) (mouse, in vivo, iv): retained
SMILES: O=C(O)CC[C@@H](NC(=O)[C@@H](CCC(=O)O)NC(=O)[C@@H](CCC(=O)O)NC(=O)[C@@H](CCC(=O)O)NC(=O)[C@@H](CCC(=O)O)NC(=O)[C@@H](CCC(=O)O)NC(=O)[C@@H](CCC(=O)O)NC(=O)[C@@H](CCC(=O)O)NC(=O)[C@@H](CCC(=O)O)NC(=O)[C@@H](CCC(=O)O)NC(=O)[C@@H](CCC(=O)O)NC(=O)[C@@H](CCC(=O)O)NC(=O)[C@@H](CCC(=O)O)NC(=O)[C@@H](CCC(=O)O)NC(=O)CN1CCN(CC(=O)O)CCN(CC(=O)O)CCN(CC(=O)O)CC1)C(=O)O [^67Ga-DOTA-(D-Glu)14, metal not drawn]
- Accumulation of radioactivity in bone (in words) (mouse, in vivo, iv): high accumulation and retention of radioactivity in bone
